Assay results: US20240180893A1, “METHODS OF TREATMENT OF BREAST CANCER” (AstraZeneca AB, priority 2022, published 2024)

Columns and labels:
Type in all cases: in vivo, human (post-menopausal women)
ESR1m ctDNA = test: SERENA-2 phase 2 study: changes in ESR1m ctDNA summed Variant Allele Frequency (sVAF %)
Text: FIG. 6: Changes in ESR1m ctDNA summed Variant Allele Frequency (sVAF %) by treatment group and visit comparisons (pre-treatment is a comparison of samples collected at screening and cycle 1 day 1, C×D1 are comparisons of samples collected at cycle 1 day 1 and cycle×day 1). Variants defined as ESR1m are E380Q, V422del, S463P, L536H/P/R, Y537C/D/N/S. Points represent individual patients, box represents upper quartile, median and lower quartile, whiskers represent 1.5 interquartile range. Treatment with camizestrant 75 mg and 150 mg caused a 100% or near 100% reduction in the level of ESR1m at all timepoints.
Blood and plasma samples for circulating tumour (ctDNA) and cancer antigen 15-3 (CA15-3) analyses will be collected at screening, on Day 1 and Day 15 of Cycle 1, on Day 1 of Cycles 2 to 5, 8-weekly (Day 1 of every 2nd cycle) from Week 25 (Cycle 7) to coincide with tumour imaging, at the EOT and/or disease progression.
The following samples for biomarker research are optional and will collected from patients in the study where possible as specified in the SoA (Table 6). • Paired tumour biopsy samples; pre- and on-treatment. Samples will be collected for patients with tumours amenable to biopsies in up to 12 patients per treatment group. • Additional tumour biopsy samples may be collected at time of progression. Blood samples for circulating tumour DNA. […]

[1] = system: HR+, HER2− metastatic or loco-regionally recurrent breast cancer; test: SERENA-2 phase 2 study: PFS, RECIST 1.1, by Blinded Independent Central Review (BICR); settings: all patients
Text: Measures to minimise bias: randomisation and blinding. This is an open-label study. All patients will receive active treatment. As the Investigators will not be blinded to study treatments, a BICR of tumour scans will be performed to provide independent tumour response assessment in addition to response evaluation by Investigator. To reduce potential bias during the study, eligible patients will be randomly allocated at a 1:1:1:1 ratio to receive 1 of the 4 study treatments.
Blinded Independent Central Review of tumour assessments. Coded copies of all imaging assessments (regardless of modality and including unscheduled visit scans) will be sent to an appointed Contract Research Organisation (CRO) for central analysis. Results of this independent review will not be communicated to Investigators, and the management of patients will be based solely upon the results of the RECIST assessment conducted by the Investigator. The imaging scans will be reviewed by 2 independent radiologists using RECIST version 1.1 and will be adjudicated, if required (i.e., 2 reviewers will review the scans and, in case of a disagreement, adjudication is performed by a separate reviewer). The independent reviewers will be blinded to study treatment.
The BICR will be conducted on an ongoing basis throughout the study. Where possible scans will be batched, and an in-patient series of assessments read together. For each patient, the BICR will define the overall visit response (i.e., the response obtained overall at each visit by assessing TLs, NTLs, and new lesions) and no programmatic derivation of overall visit response is necessary.
Blinded independent central review of tumour response. A sensitivity analysis for the primary endpoint for this study will be based on the BICR of the radiological scans. For each patient, the BICR will define the overall visit response (i.e., the response obtained overall at each visit by assessing TLS, NTLs and new lesions) data and no programmatic derivation of visit response is necessary. PFS will be derived programmatically from the overall visit responses determined for each visit. A BICR of all patients will be performed for the final database lock for the primary analysis of PFS. The BICR will cover all available scans up to the respective DCO.
As a sensitivity analysis to the primary endpoint, the above analysis methods will be repeated based on the BICR.

[2] = system: HR+, HER2− metastatic or loco-regionally recurrent breast cancer; test: SERENA-2 phase 2 study: clinical benefit rate at 24 weeks (CBR24); settings: for Adjusted CBR24 rate (%): logistic regression, factors prior CDK4/6 inhibitor and lung and/or liver metastasis; for CBR24: comparison against fulvestrant, odds ratio: odds ratio > 1 favors AZD9833
Text: (§1) The CBR24 is defined as the percentage of patients who have a best objective response (BoR) of CR or PR in the first 25 weeks (to allow for a late assessment within the assessment window) or who have SD (without subsequent cancer therapy) for at least 23 weeks after start of treatment (to allow for an early assessment within the assessment window). The CBR is defined based on the Investigator's assessment of RECIST 1.1.
The CBR24 will be summarised by treatment group and analysed using a logistic regression model (similarly to the analysis for the ORR).
as §1, with “Secondary endpoints: clinical benefit rate at 24 weeks. The CBR24” for “The CBR24”, “The CBR will be defined based” for “The CBR is defined based”, “assessment of RECIST, and will be summarised by treatment group and analysed using a logistic regression model (similarly to the analysis for the ORR).” for “assessment of RECIST 1.1.”

| Structure (SMILES) | Reduction in the level of ESR1m (ctDNA sVAF) (ESR1m ctDNA; camizestrant 75 mg and 150 mg, all timepoints vs cycle 1 day 1) [%] | Hazard ratio for disease progression relative to fulvestrant ([1]; camizestrant 75 mg once daily) | Median PFS ([1]; camizestrant 75 mg once daily) [months] | Hazard ratio for disease progression relative to fulvestrant ([1]; camizestrant 150 mg once daily) | Median PFS ([1]; camizestrant 150 mg once daily) [months] | (%) of patients with clinical benefit at 24 weeks ([2]; AZD9833 75 mg) [%] | Number of patients with clinical benefit at 24 weeks ([2]; AZD9833 75 mg, N=70 evaluable) | Adjusted CBR24 rate (%) ([2]; AZD9833 75 mg) | CBR24: comparison against fulvestrant, odds ratio ([2]; AZD9833 75 mg) | (%) of patients with clinical benefit at 24 weeks ([2]; AZD9833 150 mg) [%] | Number of patients with clinical benefit at 24 weeks ([2]; AZD9833 150 mg, N=65 evaluable) | Adjusted CBR24 rate (%) ([2]; AZD9833 150 mg) | CBR24: comparison against fulvestrant, odds ratio ([2]; AZD9833 150 mg) | Reduction in ESR1m ctDNA (ESR1m ctDNA; fulvestrant arm, compared with camizestrant) | Median PFS ([1]; fulvestrant 500 mg once monthly injection) [months] | (%) of patients with clinical benefit at 24 weeks ([2]; fulvestrant) [%] | Number of patients with clinical benefit at 24 weeks ([2]; fulvestrant, N=68 evaluable) | Adjusted CBR24 rate (%) ([2]; fulvestrant) |
| --- | --- | --- | --- | --- | --- | --- | --- | --- | --- | --- | --- | --- | --- | --- | --- | --- | --- | --- |
| C[C@@H]1Cc2c(ccc3[nH]ncc23)[C@@H](c2ccc(NC3CN(CCCF)C3)cn2)N1CC(F)(F)F [camizestrant, N-(1-(3-fluoropropyl)azetidin-3-yl)-6-((6S,8R)-8-methyl-7-(2,2,2-trifluoroethyl)-6,7,8,9-tetrahydro-3H-pyrazolo[4,3-f]isoquinolin-6-yl)pyridin-3-amine] | ~100 | 0.56 | 7.4 | 0.47 | 12.7 | 48.6 | 34 | 50.4 | 1.73 | 52.3 | 34 | 55.2 | 2.09 | – | – | – | – | – |
| C[C@]12CC[C@@H]3c4ccc(O)cc4C[C@@H](CCCCCCCCC[S+]([O-])CCCC(F)(F)C(F)(F)F)[C@H]3[C@@H]1CC[C@@H]2O (stereo partly drawn) [fulvestrant, reference compound] | – | – | – | – | – | – | – | – | – | – | – | – | – | the extent of the reduction is lower than that observed with camizestrant | 3.7 | 36.8 | 25 | 37.1 |
